Source: publication doi:10.1101/2024.11.19.623840, “Targeting GOF p53 and c-MYC through LZK Inhibition or Degradation Suppresses Head and Neck Tumor Growth” (bioRxiv, 2024)

Legend:
[1] = molecular target: T1, LZK (leucine zipper-bearing kinase) (Homo sapiens, UniProt O43283); assay: KdELECT KINOMEscan competition binding assay
T1 construct: gene MAP3K13
T1 sequence (O43283 1-966): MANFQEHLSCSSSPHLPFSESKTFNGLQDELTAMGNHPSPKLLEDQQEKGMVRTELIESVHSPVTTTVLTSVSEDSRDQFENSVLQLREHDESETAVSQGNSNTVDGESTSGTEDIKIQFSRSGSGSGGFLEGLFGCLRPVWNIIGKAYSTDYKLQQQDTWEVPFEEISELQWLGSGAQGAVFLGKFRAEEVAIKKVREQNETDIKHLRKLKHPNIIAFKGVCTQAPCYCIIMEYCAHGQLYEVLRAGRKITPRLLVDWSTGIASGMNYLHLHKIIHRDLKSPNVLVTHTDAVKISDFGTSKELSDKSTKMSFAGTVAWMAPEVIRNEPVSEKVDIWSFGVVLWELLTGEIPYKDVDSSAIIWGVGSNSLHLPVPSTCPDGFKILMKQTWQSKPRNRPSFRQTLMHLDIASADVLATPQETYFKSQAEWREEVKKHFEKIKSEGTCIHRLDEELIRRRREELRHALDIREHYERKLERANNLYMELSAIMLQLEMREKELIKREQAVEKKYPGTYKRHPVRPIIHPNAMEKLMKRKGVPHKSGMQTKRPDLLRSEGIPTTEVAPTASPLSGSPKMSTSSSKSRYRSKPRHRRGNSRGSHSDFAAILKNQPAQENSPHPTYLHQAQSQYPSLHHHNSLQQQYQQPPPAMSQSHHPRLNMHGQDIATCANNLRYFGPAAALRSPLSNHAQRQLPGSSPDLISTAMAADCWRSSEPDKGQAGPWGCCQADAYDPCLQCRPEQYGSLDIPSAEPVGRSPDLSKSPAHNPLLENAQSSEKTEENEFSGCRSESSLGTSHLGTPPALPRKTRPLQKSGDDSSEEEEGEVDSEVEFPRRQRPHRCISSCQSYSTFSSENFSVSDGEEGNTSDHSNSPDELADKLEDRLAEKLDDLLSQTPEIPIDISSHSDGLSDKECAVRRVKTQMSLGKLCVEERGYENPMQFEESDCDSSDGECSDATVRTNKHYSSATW

[2] = molecular target: T1, LZK (leucine zipper-bearing kinase); assay: LZK degradation Western blot in CAL33 cells with dox-induced LZK; type: cell-based

Row | Kd [1] | SMILES | LZK degradation Western blot in CAL33 cells with dox-induced LZK [2]
1 | 35 nM | Cc1ncsc1-c1ccc([C@H](C)NC(=O)[C@@H]2C[C@@H](O)CN2C(=O)[C@@H](NC(=O)CCCCCCC(=O)N2CCC(c3cc(Nc4cc(C#N)ccn4)nc(N4CCC(F)(F)C4)c3)CC2)C(C)(C)C)cc1 [PROTAC-21A] | 
2 |  | Cc1ncsc1-c1ccc([C@H](C)NC(=O)[C@@H]2C[C@@H](O)CN2C(=O)[C@@H](NC(=O)c2cncc(C(=O)N3CCC(c4cc(Nc5cc(C#N)ccn5)nc(N5CCC(F)(F)C5)c4)CC3)c2)C(C)(C)C)cc1 [PROTAC-21C] | PROTAC-21B, PROTAC-21C and PROTAC-21D (Figure 5B) also promoted degradation of LZK at higher concentrations
3 |  | N#Cc1ccnc(Nc2cc(C3CCN(C(=O)CCCCCCC(=O)NCCCCNC(=O)CNc4cccc5c4C(=O)N(C4CCC(=O)NC4=O)C5=O)CC3)cc(N3CCC(F)(F)C3)n2)c1 (stereo not shown) [PROTAC-21B] | PROTAC-21B, PROTAC-21C and PROTAC-21D (Figure 5B) also promoted degradation of LZK at higher concentrations
4 |  | N#Cc1ccnc(Nc2cc(C3CCN(C(=O)c4cncc(C(=O)NCCCCNC(=O)CNc5cccc6c5C(=O)N(C5CCC(=O)NC5=O)C6=O)c4)CC3)cc(N3CCC(F)(F)C3)n2)c1 (stereo not shown) [PROTAC-21D] | PROTAC-21B, PROTAC-21C and PROTAC-21D (Figure 5B) also promoted degradation of LZK at higher concentrations
